Experimental data published in patent publication US20080027145A1, “Therapeutic Molecules and Methods for Generating and/or Selecting Same” (priority 2004, published 2008).

What was measured:
Mcl-1 = target: T1, Mcl-1 (Mus musculus, UniProt P97287); experiment: Solution competition assay (competition with immobilized wtBimBH3, biosensor); type: binding; conditions: Mcl-1
T1 construct: mouse Mcl-1 (Acc. no. NP_031588; residues 152-308); GST (N, cleaved yes); made in house
Protocol: (§1) The relative affinities of BH3 peptides for pro-survival Bcl-2 proteins were assessed by comparing their abilities to compete with immobilized ^wtBimBH3 peptide for binding to Bcl-2-like proteins (Wilson-Annan et al., Supra). A fixed sub-saturating amount (10 nM) of a pro-survival Bcl-2 protein was incubated with varying amounts of competitor BH3 peptide in HBS for >2 hr on ice. The mixtures were then injected over a sensor chip containing a channel bearing mouse ^wtBimBH3 and a control channel with mouse ^4EBimBH3 immobilized. The baseline response (control channel) was subtracted to obtain the absolute binding response. Taking the response for the pro-survival protein alone as the maximal response (100%), the relative residual binding (%) in the presence of increasing amounts of competitor peptides at a given injection time point (430 s) was then calculated. […] Theoretically, IC50=[A]/2+KD, where [A] is the analyte concentration.
(§2) Some of recombinant proteins (Bcl-2, Bcl-xL, A1) studied contain cysteine residues but the behavior of Bcl-2 or Bcl-xL was not affected by dithiothreitol (DTT).
(§3) To assess if other BH3 peptides bind pro-survival proteins similarly, we directly compared their binding affinities in solution using a competitive binding assay. In such assays, the quality and absolute quantity of target proteins are less critical than in direct binding, and solution binding precludes the steric hindrance encountered with some immobilized peptides. FIG. 1C illustrates the approach: pre-incubation of Bcl-xL in solution with increasing amounts of BikBH3 reduced its binding to ^wtBimBH3 (FIG. 1D). From the attenuation in binding, the IC50 (competitor peptide concentration that halves binding) of BikBH3 can be calculated (FIG. 1E). As the IC50 values reflect relative binding affinities (see Experimental Procedures), we used this assay to compare the binding affinities of eight BH3 peptides (Table 3) to the five pro-survival proteins. […] Their binding properties fell into several classes (FIG. 2B and FIG. 4). […] Contrary to the prevailing view, the pro-survival proteins also had unique patterns for BH3 binding: Bcl-xL behaved like Bcl-w, with Bcl-2 more distinct, whereas Mcl-1 and A1 formed a separate group (FIG. 2B).

[1] = system: pro-survival proteins (Bcl-2, Bcl-xL, Bcl-w, Mcl-1, A1); experiment: Solution competition assay, statements spanning several pro-survival proteins; type: binding, human and mouse; conditions: Bcl-2, Bcl-xL, Bcl-w, Mcl-1, A1
Protocol: as §1, §2, §3

A1 ΔC20 = target: T2, A1 ΔC20 (Mus musculus, UniProt Q07440); experiment: Direct binding to immobilized BH3 peptide, Biacore biosensor; conditions: BadBH3 or NoxaBH3 immobilized chip
T2 construct: mouse A1 (Acc. no. NP_033872; residues 1-152); GST (N, cleaved yes); made in house
T2 sequence (Q07440 1-152): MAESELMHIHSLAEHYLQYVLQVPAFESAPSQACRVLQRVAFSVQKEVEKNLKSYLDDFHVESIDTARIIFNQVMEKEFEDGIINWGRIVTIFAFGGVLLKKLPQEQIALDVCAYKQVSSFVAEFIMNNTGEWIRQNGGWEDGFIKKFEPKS
Protocol: (§4) Recombinant human Bcl-xL ΔC24, mouse Mcl-1 ΔN151 ΔC23 and mouse A1 ΔC20 were expressed as GST fusion proteins and cleaved off Glutathione Sepharose columns as described (Day et al., Cell Death Differ 6:1125-1132, 1999; Hinds et al., EMBO J 22:1497-1507, 2003).
(§5) Affinity measurements were performed at room temperature on a Biacore 3000 biosensor (Biacore) with HBS (10 mM HEPES pH 7.2, 150 mM NaCl, 3.4 mM EDTA, 0.005% Tween 20) as the running buffer. Mouse 26-mer ^wtBimBH3, ^4EBimBH3 mutant, BadBH3, NoxaBH3 or control irrelevant peptides were immobilized onto CM5 sensor chips using amine-coupling chemistry (Wilson-Annan et al., Supra). To assess the binding affinities of pro-survival Bcl-2-like proteins for BimBH3 directly, the proteins were directly injected into the sensor chip at 20 μl/min. Residual bound proteins were desorbed with 50 mM NaOH or 6 M GuHCl (pH 7.2), followed by two washes with running buffer. Binding kinetics were derived from sensorgrams, following subtraction of baseline responses, using BIA evaluation software (version 3, Biacore) (Wilson-Annan et al., Supra).
(§6) The binding constants of the pro-survival molecules for ^wtBimBH3, immobilized on sensor chip, were determined using biosensor experiments as described in Hinds et al., Supra; Wilson-Annan et al., Supra.

Bcl-w ΔC29 = target: T3, Bcl-w ΔC29 (Homo sapiens, UniProt Q92843, A128E/C29S); experiment: as above; conditions: BadBH3 or NoxaBH3 immobilized chip
T3 construct: human Bcl-w (Acc. no. NP_004041; residues 1-164; C29S A128E); made in house
T3 sequence (Q92843 1-164 C29S/A128E): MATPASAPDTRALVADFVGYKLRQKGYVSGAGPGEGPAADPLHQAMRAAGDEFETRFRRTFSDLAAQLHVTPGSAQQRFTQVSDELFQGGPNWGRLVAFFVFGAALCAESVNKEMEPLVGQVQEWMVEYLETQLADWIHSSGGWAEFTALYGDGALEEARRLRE
Protocol: as §4, §5, §6

Bcl-xL ΔC24 = target: T4, Bcl-xL ΔC24 (Homo sapiens, UniProt Q07817); experiment: as above; conditions: BadBH3 or NoxaBH3 immobilized chip
T4 construct: Human Bcl-xL (Acc. no. NP_612815; residues 1-209); GST (N, cleaved yes); made in house
Protocol: as §4, §5, §6

Bcl-2 ΔC22 = target: T5, Bcl-2 ΔC22 (Homo sapiens, UniProt P10415); experiment: as above; conditions: BadBH3 or NoxaBH3 immobilized chip
T5 construct: Human Bcl-2 (Acc. no. NP_000624; residues 1-217); made in house
Protocol: as §4, §5, §6

Mcl-1 ΔN151 ΔC23 = target: T6, Mcl-1 ΔN151 ΔC23 (Mus musculus, UniProt P97287); experiment: as above; conditions: BadBH3 or NoxaBH3 immobilized chip
T6 construct: mouse Mcl-1 (Acc. no. NP_031588; residues 152-308); GST (N, cleaved yes); made in house
Protocol: as §4, §5, §6

T5 sequence (P10415 1-217): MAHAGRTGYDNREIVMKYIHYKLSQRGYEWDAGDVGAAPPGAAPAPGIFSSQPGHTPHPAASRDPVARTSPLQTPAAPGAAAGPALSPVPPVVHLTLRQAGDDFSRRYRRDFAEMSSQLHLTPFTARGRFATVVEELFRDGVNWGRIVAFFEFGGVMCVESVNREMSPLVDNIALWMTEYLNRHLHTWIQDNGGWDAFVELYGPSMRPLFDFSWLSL
T1 sequence (P97287 152-308): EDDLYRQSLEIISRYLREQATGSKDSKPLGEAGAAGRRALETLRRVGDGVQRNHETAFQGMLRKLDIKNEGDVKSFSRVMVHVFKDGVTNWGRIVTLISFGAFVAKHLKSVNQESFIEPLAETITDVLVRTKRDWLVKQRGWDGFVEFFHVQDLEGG
T6 sequence (P97287 152-308): as above
T4 sequence (Q07817 1-209): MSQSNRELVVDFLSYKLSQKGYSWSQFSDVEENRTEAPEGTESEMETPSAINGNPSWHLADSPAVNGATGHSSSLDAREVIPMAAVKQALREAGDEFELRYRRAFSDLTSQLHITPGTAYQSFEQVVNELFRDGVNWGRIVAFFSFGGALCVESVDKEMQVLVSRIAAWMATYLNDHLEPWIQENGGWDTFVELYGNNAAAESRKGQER

## CSCC[C@H](NC(=O)[C@H](CCCNC(=N)N)NC(=O)[C@H](CCCNC(=N)N)NC(=O)[C@H](CC(C)C)NC(=O)[C@H](CCC(=O)O)NC(=O)[C@H](CCCNC(=N)N)NC(=O)CNC(=O)[C@H](Cc1ccc(O)cc1)NC(=O)[C@H](CCCNC(=N)N)NC(=O)[C@H](CCC(N)=O)NC(=O)[C@H](C)NC(=O)[C@H](C)NC(=O)[C@H](Cc1c[nH]c2ccccc12)NC(=O)[C@H](CC(C)C)NC(=O)[C@@H](N)CC(N)=O)C(=O)N[C@@H](CO)C(=O)N[C@@H](CC(=O)O)C(=O)N[C@@H](CCC(=O)O)C(=O)N[C@@H](Cc1ccccc1)C(=O)N[C@H](C(=O)N[C@@H](CC(=O)O)C(=O)N[C@@H](CO)C(=O)N[C@@H](Cc1ccccc1)C(=O)N[C@@H](CCCCN)C(=O)N[C@@H](CCCCN)C(=O)NCC(=O)O)C(C)C [BadBH3]
Mcl-1
  IC50: > 100 µM
[1]
  binding preference among pro-survival proteins: strongly preferred Bcl-2, BCl-xL and Bcl-w
A1 ΔC20
  binding of A1 to immobilized peptide: no affinity
Bcl-w ΔC29
  binding of Bcl-w to immobilized peptide: avidly
Bcl-xL ΔC24
  binding of Bcl-xL to immobilized peptide: avidly
Bcl-2 ΔC22
  binding of Bcl-2 to immobilized peptide: avidly
Mcl-1 ΔN151 ΔC23
  binding of Mcl-1 to immobilized peptide: no affinity
